Laboratory results reported in ChEMBL document CHEMBL2346513, “Synthesis and evaluation of methylsulfonylnitrobenzamides (MSNBAs) as inhibitors of the thyroid hormone receptor-coactivator interaction” (Bioorg Med Chem Lett, 2013).

Tests used:
[1] = molecular target: T1, Thyroid hormone receptor alpha (Homo sapiens, UniProt P10827); test: Inhibition of TRalpha-LBD (unknown origin) interaction to texas red-labeled SRC2-2 peptide by fluorescence polarization assay
T1 sequence (P10827 whole entry): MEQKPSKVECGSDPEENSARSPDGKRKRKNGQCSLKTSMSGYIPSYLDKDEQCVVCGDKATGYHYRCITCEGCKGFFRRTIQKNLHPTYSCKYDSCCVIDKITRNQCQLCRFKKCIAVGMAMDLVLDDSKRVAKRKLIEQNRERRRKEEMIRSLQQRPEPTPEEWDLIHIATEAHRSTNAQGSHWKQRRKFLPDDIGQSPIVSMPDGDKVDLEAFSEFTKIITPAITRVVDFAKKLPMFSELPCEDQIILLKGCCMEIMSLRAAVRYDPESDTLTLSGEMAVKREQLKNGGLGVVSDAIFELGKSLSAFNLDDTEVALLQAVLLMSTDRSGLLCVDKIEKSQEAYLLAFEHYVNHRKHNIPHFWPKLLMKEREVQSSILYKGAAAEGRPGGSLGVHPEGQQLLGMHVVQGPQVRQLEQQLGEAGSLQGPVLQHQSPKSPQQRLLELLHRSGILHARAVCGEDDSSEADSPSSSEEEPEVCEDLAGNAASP

[2] = molecular target: T2, Thyroid hormone receptor beta (Homo sapiens, UniProt P10828); test: Inhibition of TRbeta-LBD (unknown origin) interaction to texas red-labeled SRC2-2 peptide by fluorescence polarization assay
T2 sequence (P10828 whole entry): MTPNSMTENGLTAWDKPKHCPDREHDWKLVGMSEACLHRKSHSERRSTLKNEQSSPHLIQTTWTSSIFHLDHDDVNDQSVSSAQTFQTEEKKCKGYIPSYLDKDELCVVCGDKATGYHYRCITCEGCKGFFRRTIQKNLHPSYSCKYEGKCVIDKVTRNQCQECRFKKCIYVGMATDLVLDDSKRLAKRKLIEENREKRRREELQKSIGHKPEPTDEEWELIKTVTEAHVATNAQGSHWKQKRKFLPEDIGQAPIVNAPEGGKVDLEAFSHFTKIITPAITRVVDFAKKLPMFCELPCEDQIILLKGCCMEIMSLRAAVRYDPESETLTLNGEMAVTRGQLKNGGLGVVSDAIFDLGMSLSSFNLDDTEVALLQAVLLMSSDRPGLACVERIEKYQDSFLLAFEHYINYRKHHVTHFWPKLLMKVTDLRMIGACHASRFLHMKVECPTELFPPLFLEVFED

Vitamin D3 receptor = molecular target: T3, Vitamin D3 receptor (Homo sapiens, UniProt P11473); test: Inhibition of VDR (unknown origin) interaction to SRC2-3 peptide by fluorescence polarization assay
T3 sequence (P11473 whole entry): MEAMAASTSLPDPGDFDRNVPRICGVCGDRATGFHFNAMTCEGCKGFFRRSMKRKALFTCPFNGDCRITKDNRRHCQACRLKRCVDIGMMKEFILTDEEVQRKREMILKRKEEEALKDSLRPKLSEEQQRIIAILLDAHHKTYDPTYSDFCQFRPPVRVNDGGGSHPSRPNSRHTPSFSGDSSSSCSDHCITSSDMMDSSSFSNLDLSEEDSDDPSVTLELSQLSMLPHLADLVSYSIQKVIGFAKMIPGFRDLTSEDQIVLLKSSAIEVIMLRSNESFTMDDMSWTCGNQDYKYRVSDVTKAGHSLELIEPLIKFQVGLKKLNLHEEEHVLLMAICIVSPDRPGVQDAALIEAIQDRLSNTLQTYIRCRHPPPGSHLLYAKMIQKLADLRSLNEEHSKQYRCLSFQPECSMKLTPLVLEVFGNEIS

HepG2 = test: Cytotoxicity against human HepG2 cells assessed as ATP level after 72 hrs by CellTiter-Glo assay; type: cell-based; conditions: HepG2, 72 h

Structure (SMILES)	IC50 [1] [µM]	IC50 [2] [µM]	IC50 (Vitamin D3 receptor) [µM]	EC50 (HepG2) [µM]
CN(C(=O)CCCNC(=O)c1ccc(S(C)(=O)=O)c([N+](=O)[O-])c1)c1ccccc1	> 60	> 60	> 60	> 27
CS(=O)(=O)c1ccc(C(=O)N2CCC(C(=O)N3CCCCC3)CC2)cc1[N+](=O)[O-]	> 60	> 60	> 60	> 27
CN(C(=O)CCNC(=O)c1ccc(S(C)(=O)=O)c([N+](=O)[O-])c1)c1ccccc1	37	> 60	> 60	> 27
CN(Cc1ccccc1)C(=O)CN(C)C(=O)c1ccc(S(C)(=O)=O)c([N+](=O)[O-])c1	> 60	> 60	> 60	> 27
CS(=O)(=O)c1ccc(C(=O)NCCCC(=O)N2CCC(c3ccccc3)CC2)cc1[N+](=O)[O-]	> 60	> 60	> 60	> 27
CS(=O)(=O)c1ccc(C(=O)N2CCC(C(=O)N3CCN(c4ccccc4F)CC3)CC2)cc1[N+](=O)[O-]	> 60	> 60	> 60	> 27
CS(=O)(=O)c1ccc(C(=O)N2CCC(C(=O)N3CCc4ccccc43)CC2)cc1[N+](=O)[O-]	> 60	> 60	> 60	> 27
CN(Cc1ccccc1)C(=O)CCCNC(=O)c1ccc(S(C)(=O)=O)c([N+](=O)[O-])c1	> 60	> 60	> 60	> 27
CN(Cc1ccccc1F)C(=O)CNC(=O)c1ccc(S(C)(=O)=O)c([N+](=O)[O-])c1	> 60	24	> 60	11.4
CN(CC(=O)NC12CC3CC(CC(C3)C1)C2)C(=O)c1ccc(S(C)(=O)=O)c([N+](=O)[O-])c1	> 60	> 60	> 60	> 27
CS(=O)(=O)c1ccc(C(=O)NCCC(=O)N2CCc3ccccc3C2)cc1[N+](=O)[O-]	> 60	> 60	> 60	> 27
CS(=O)(=O)c1ccc(C(=O)N2CCC(C(=O)N3CCC(c4ccccc4)CC3)CC2)cc1[N+](=O)[O-]	> 60	> 60	> 60	> 27
CS(=O)(=O)c1ccc(C(=O)NCCC(=O)N(Cc2ccccc2)Cc2ccccc2)cc1[N+](=O)[O-]	33	> 60	38	> 27
CN(Cc1ccccc1)C(=O)CCNC(=O)c1ccc(S(C)(=O)=O)c([N+](=O)[O-])c1	> 60	> 60	> 60	> 27
CC1CCN(C(=O)CCNC(=O)c2ccc(S(C)(=O)=O)c([N+](=O)[O-])c2)CC1	> 60	> 60	> 60	> 27
CS(=O)(=O)c1ccc(C(=O)NCCC(=O)NC23CC4CC(CC(C4)C2)C3)cc1[N+](=O)[O-]	25	31	44	> 27
CC(C)N(C(=O)CNC(=O)c1ccc(S(C)(=O)=O)c([N+](=O)[O-])c1)C(C)C	> 60	> 60	> 60	> 27
CC1Cc2ccccc2N1C(=O)CCCNC(=O)c1ccc(S(C)(=O)=O)c([N+](=O)[O-])c1 (configuration not stated)	> 60	> 60	> 60	> 27
CS(=O)(=O)c1ccc(C(=O)NCCC(=O)N2CCc3ccccc32)cc1[N+](=O)[O-]	> 60	> 60	> 60	> 27
CS(=O)(=O)c1ccc(C(=O)N2CCC(C(=O)N3CCc4ccccc4C3)CC2)cc1[N+](=O)[O-]	> 60	> 60	> 60	> 27
CS(=O)(=O)c1ccc(C(=O)NCC(=O)N2CCC(c3ccccc3)CC2)cc1[N+](=O)[O-]	44	> 60	37	> 27
CC1Cc2ccccc2N1C(=O)CCNC(=O)c1ccc(S(C)(=O)=O)c([N+](=O)[O-])c1 (configuration not stated)	> 60	> 60	55	> 27
CS(=O)(=O)c1ccc(C(=O)NCCCC(=O)N2CCCCC2)cc1[N+](=O)[O-]	> 60	> 60	> 60	> 27
CC(C)N(C(=O)C1CCN(C(=O)c2ccc(S(C)(=O)=O)c([N+](=O)[O-])c2)CC1)C(C)C	> 60	> 60	> 60	> 27
CS(=O)(=O)c1ccc(C(=O)NCC(=O)N2CCc3ccccc3C2)cc1[N+](=O)[O-]	> 60	46	50	> 27

Now from value to compound, other results behind:

IC50 [1] [µM]	IC50 [2] [µM]	IC50 (Vitamin D3 receptor) [µM]	Structure (SMILES)	EC50 (HepG2) [µM]
> 60	> 60	> 60	Cc1ccc(N2CCN(C(=O)CCCNC(=O)c3ccc(S(C)(=O)=O)c([N+](=O)[O-])c3)CC2)cc1	> 27
> 60	> 60	> 60	CN(CC(=O)N1CCc2ccccc21)C(=O)c1ccc(S(C)(=O)=O)c([N+](=O)[O-])c1	> 27
> 60	> 60	> 60	CN(CC(=O)N1CCN(c2ccc(C(F)(F)F)cc2)CC1)C(=O)c1ccc(S(C)(=O)=O)c([N+](=O)[O-])c1	11.9
> 60	> 60	> 60	CC1CCN(C(=O)CN(C)C(=O)c2ccc(S(C)(=O)=O)c([N+](=O)[O-])c2)CC1	> 27
> 60	> 60	> 60	CS(=O)(=O)c1ccc(C(=O)NCC(=O)N2CCN(c3ccccc3F)CC2)cc1[N+](=O)[O-]	> 27
> 60	> 60	> 60	CN(CC(=O)N1CCN(c2ccc(F)cc2)CC1)C(=O)c1ccc(S(C)(=O)=O)c([N+](=O)[O-])c1	17.2
> 60	> 60	> 60	CS(=O)(=O)c1ccc(C(=O)NCCC(=O)N2CCN(c3ccc(C(F)(F)F)cc3)CC2)cc1[N+](=O)[O-]	> 27
> 60	> 60	> 60	CS(=O)(=O)c1ccc(C(=O)NCC(=O)N2CCN(c3ccccc3)CC2)cc1[N+](=O)[O-]	> 27
58	> 60	51	CS(=O)(=O)c1ccc(C(=O)NCC(=O)N2CCN(c3ccc(F)cc3)CC2)cc1[N+](=O)[O-]	12.9
> 60	> 60	> 60	CN(CC(=O)N1CCc2ccccc2C1)C(=O)c1ccc(S(C)(=O)=O)c([N+](=O)[O-])c1	> 27
> 60	> 60	> 60	CS(=O)(=O)c1ccc(C(=O)NCCCC(=O)N2CCN(c3ccccc3)CC2)cc1[N+](=O)[O-]	> 27
> 60	> 60	> 60	CS(=O)(=O)c1ccc(C(=O)N2CCC(C(=O)N3CCN(c4ccc(F)cc4)CC3)CC2)cc1[N+](=O)[O-]	> 27
> 60	> 60	> 60	CN(Cc1ccccc1F)C(=O)C1CCN(C(=O)c2ccc(S(C)(=O)=O)c([N+](=O)[O-])c2)CC1	> 27
